According to PMC10072326, “Promising anticancer agents based on 8-hydroxyquinoline hydrazone copper(II) complexes” (Frontiers in Chemistry, 2023):

How the values were obtained:
DNA-EB system = assay: DNA-ethidium bromide fluorescence competition; format: binding
Protocol: The fluorescence emission experiments were carried out in a Perkin Elmer LS 55 spectrofluorimeter. A pulsed Xenon lamp (50 Hz) provided the excitation light. A thermostated water bath recycler linked to the cell holder provided temperature control within ± 0.1 °C. The measurements were done in a 1000 µL quartz cell with an optical path length of 1.0 cm with the complexes solution added directly to the DNA-EB (ethidium bromide) solution in the cell. A glass syringe connected to a Mitutoyo micrometric screw added accurate volumes each time (one complete turn of the screw is 8.2 µL, 1/50 of a turn is the minimum possible addition).
Moreover, this complex reduces the emission of the EB-DNA system to ca. 40 % of its initial intensity with an interaction constant of (1.18 ± 0.03) × 10^4 M^−1 (Fig. S22, constant calculated with HypSpec2014 (28)).
Considering the results of the melting temperature assay, the DNA-EB fluorescence quenching was also used to test complex 7. […] The accessible fraction fa was determined as 0.26 and the interaction constant as (1.44 ± 0.02) ×10^5 M^−1 (HypSpec2014 (28)). As EB has a second mode of interaction with DNA due to electrostatic interactions on the external part of the biomolecule backbone (30), it is possible that the complexes are only being able to reach for this fraction. […]

A-375 cells [1] = assay: γH2AX staining for DNA double-strand breaks; format: cell-based
Protocol: Indeed, we examined whether DNA nicks induced by the complexes on pure plasmid DNA would reflect in cell culture as increased DNA break formation. To test this, A-375 cells were stained using γH2AX, which is a common marker for DSBs (Figure 7B). […] For complex 1 the opposite effect was observed and despite its lower ability to induce ROS formation, the DSB were the highest among the group.
(§1) 5 × 10^4 number of A-375 and A-549 cells were seeded on 12-well plates, and the next day cells were treated with either copper complexes (calculated IC70 values) or cisplatin (15 μM). Following 48 h of treatment, cells were trypsinized, centrifuged and resuspended in PBS solution supplemented with 1% fetal bovine serum (FBS) (10^6 cells/mL).
The Muse ɣH2A.X Activation Dual Detection Kit (Luminex, MCH200101) protocols were followed with minor changes. 1 × 10^5 cells were mixed with ice-cold 1X Fixation Buffer at the same volume for 5 min. Cells were centrifuged (600 g, 5 min), and the pellet was suspended with 100 μL of ice-cold 1X Permeabilization Buffer (10 min, on ice), and centrifuged again. The cell pellet was resuspended with 50 μL of antibody mixture of (20X) Anti-phospho-Histone H2A.X (Ser139), Alexa Fluor 555 and (20X) Anti-H2A.X, PECy5 antibodies. Following 30 min of antibody staining, cells were centrifuged and resuspended with 1X Assay Buffer. DNA breaks were analysed with Muse Cell Analyzer (Merck Millipore).

A-549 cells [2] = assay: Cytotoxicity with ROS scavenger NAC (SRB); format: cell-based; conditions: 10 mM NAC pre-treatment 2 h, co-treatment 72 h
Excerpt: (§2) Additionally, to assess whether the ROS induction contributed to the cytotoxicity triggered by these complexes, we used a ROS scavenger, N-acetyl-cysteine (NAC), in combination with 1, 3, 5 or 8. […] Indeed, it is also possible that the cytotoxicity induced by 5 is not by ROS, despite the induction observed in Figure 7A.
(§3) Figure S27- Protective mechanism of NAC against Cu(II) complexes. Addition of NAC can protect cells from the cytotoxic effects of the Cu(II) complexes A-375 (A) and A-549 (B) cells were pre-treated with 10 mM of ROS scavenger N-acetylcysteine (NAC) for 2 h, then co-treated with freshly prepared Cu(II) complexes (1, 3, 5 and 8) for 72 h. Cell viability was measured via SRB assay (2 biological replicates, each done in duplicate). The error bars represent standard error of the mean. Student t-test was used for statistical analysis, *p<0.05, **p<0.01

A-375 cells [3] = assay: Cytotoxicity with ROS scavenger NAC (SRB); format: cell-based; conditions: 10 mM NAC pre-treatment 2 h, co-treatment 72 h
Excerpt: as §2, §3

A-375 cells [4] = assay: ROS activation via dihydroethidium staining, flow cytometry; format: cell-based; conditions: 48 h
Excerpt: (§4) Since reactive oxygen species appeared to be involved in the nicking activity of the complexes (Supplementary Figure S24), we investigated whether there was an increase in ROS formation in cells upon drug treatment. Dihydroethidium (DHE) is a reduced form of ethidium, after oxidation with superoxide (ROS), it is converted into 2-hydroxy ethidium, which is a chemical that emits red fluorescence and intercalates DNA. […] Similar results were obtained using A-549 cells, but with much milder induction of ROS except for 8, which remained high (Supplementary Figure S26).
as §1
(§5) Oxidative stress levels were assessed by Muse Oxidative Stress Kit (Luminex, MCH100111) using the same protocol as previously described (21).

A-375 cells [5] = assay: Apoptosis by Annexin V/7-AAD and Caspase 3/7 flow cytometry; format: cell-based; conditions: 48 h, Annexin-V and caspase 3/7
Protocol: To determine the mode of cell death, A-375 cells were incubated with the Cu complexes and cisplatin for 48 h and, induction of apoptosis was evaluated using both Annexin-V staining and activation of caspase 3/7 in response to drug treatment. While Annexin-V staining relies on the loss of plasma membrane asymmetry, caspases 3 and 7 are critical proteases, which are responsible for the cleavage of many cellular proteins. […] Similar results were obtained in A-549 cells (Supplementary Figure S28).
as §1
Annexin V & Dead Cell Kit (Luminex, MCH100105) protocols were followed for Annexin V activation. Briefly, 1 × 10^5 cells were stained with Annexin V and 7-AAD solution in a 1:1 ratio and incubated at room temperature for 20 min. The apoptotic cell population was evaluated with Muse Cell Analyzer (Merck Millipore).
Caspase-3/7 Kit (Luminex, MCH100108) protocols were followed for Caspase 3/7 staining. 2 × 10^5 cells were stained with 5 μL of Caspase 3/7 antibody (1:8 dilution in PBS) and incubated at room temperature for 30 min. Then, the cells were stained with 100 μL of 7-AAD antibody mixture (1:75 dilution with 1 × Assay Buffer) for 5 min. Caspase 3/7 and 7-AAD positivity were assessed with Muse Cell Analyzer (Merck Millipore).

A-549 cells [6] = assay: ROS activation via dihydroethidium staining, flow cytometry; format: cell-based
Excerpt: as §4, §1, §5

Row | SMILES | interaction constant (DNA-EB system; DNA-EB fluorescence quenching, HypSpec2014) | emission of the EB-DNA system, % of its initial intensity (DNA-EB system; titration 0 – 51.6 µM, HEPES pH 7.4) | DSB induction (γH2AX), in words (A-375 cells [1]) | effect of NAC on cytotoxicity (A-549 cells [2]) | effect of NAC on cytotoxicity (A-375 cells [3]) | ROS positivity (A-375 cells [4]) | induction of apoptosis, in words (A-375 cells [5]) | ROS induction, in words (A-549 cells [6]) | DNA breaks (γH2AX) (A-375 cells [1]; 48 h)
1 | CC(=O)[O-].O=C(NN=Cc1ccc2cccc([O-])c2n1)c1ccccc1.[Cu+2] [Complex 1, [Cu(HL^1)(AcO)]] | (1.18 ± 0.03) × 10^4 M^−1 | ca. 40% | highest levels of DSB induction | significantly reduced | significantly reduced |  |  |  | 
2 | [Cu+2].[O-]C(=NN=Cc1ccc2cccc([O-])c2n1)c1ccc(F)cc1 [Complex 3, [Cu(L^3)]3] |  |  |  | significantly reduced | significantly reduced | 60% | performed well |  | 
3 | COc1ccc(C([O-])=NN=Cc2ccc3cccc([O-])c3n2)cc1.[Cu+2] [Complex 5, [Cu(L^5)]3] |  |  | highest levels of DSB induction |  |  | ~80% | triggered apoptosis only mildly | milder ROS induction | ~80%
